The nature of the data set: Blood concentration measurement of orally-administrated mice. The data set is classed as in vivo, C57BL/6JNifdc mice. The settings on record: C57BL/6JNifdc, mouse, plasma, oral, 30 mg/kg; for concentration at 0.5 h: read-out: Average blood compound concentration (μM) 0.5 h; for concentration at 1 h: read-out: Average blood compound concentration (μM) 1.0 h; for concentration at 1.5 h: read-out: Average blood compound concentration (μM) 1.5 h; for concentration at 2 h: read-out: Average blood compound concentration (μM) 2.0 h. How it is done: The C57BL/6JNifdc mice used in this experiment were provided by Zhejiang Vital River Laboratory Animal Technology Co., Ltd. The compounds were dissolved in DMSO/Solutol/Saline (v/v/v=10/10/80) as a stock solution (3 mg/mL). The stock solution was administrated orally to 6 C57BL/6JNifdc mice at a dose of 30 mg/kg. Blood was collected from the orbital venous plexus at 0.5 h, 1 h, 1.5 h, and 2 h after oral administration.
Approximately 200 μL of blood samples were collected into EDTAK2 Blood Collection tubes and then immediately centrifuged at 10,000 rpm for 5 min. 66 μL of plasma supernatant was added with 198 μL of acetonitrile (Energy), the resulting mixture was shaken on a vortex for 5 min, and then immediately centrifuged at 13000 rpm for 8 min. 200 μL of supernatant was taken for blood compound concentration measurement.
The compound was accurately weighed and dissolved in acetonitrile to a concentration of 100 μg/mL. 50 μL of compound was pipetted and added to 4.95 mL of acetonitrile/water (v/v=3/1) solution to obtain 1000 ng/mL mother liquid. 650 μL of the mother liquid was taken and sequentially diluted with a solution of acetonitrile/water (v/v=3/1) in a 2-fold gradient to obtain standard samples with various concentrations of 500 ng/mL, 250 ng/mL, 125 ng/mL, 62.5 ng/mL, and 31.25 ng/mL.
Standard solutions with concentrations of 1000 ng/mL, 500 ng/mL, 250 ng/mL, 125 ng/mL, 62.5 ng/mL, and 31.25 ng/mL were measured by using LC-MS (LC-MS 2020+LC-2030 Plus, Shimadzu) SIM mode to obtain a calibration curve. The treated blood samples were measured by this method and then subjected to quantitative analysis by using the calibration curve to obtain compound concentration data of each treated blood sample.
The data were exported and the average blood compound concentration at each sampling time was calculated.
Blood compound concentration=compound concentration in treated blood sample×4/molecular weight of the compound. The average blood compound concentration is the average of the compound concentrations in the blood at each sampling time.

Consider `Cc1ccc(C[C@H](NC(=O)C(C)C(=O)NCc2ccc(Cl)cc2Cl)B(O)O)cc1` (stereo partly drawn) [Example 59, ((1R)-1-(3-((2,4-dichlorobenzyl)amino)-2-methyl-3-oxopropionamido)-2-(p-tolyl)ethyl)boric acid], for which the concentration at 0.5 h worked out at 23 µM, the concentration at 1 h is 20 µM, the concentration at 1.5 h was 22 µM and the concentration at 2 h was 16 µM.
Turning to `COc1cccc(CCNC(=O)C(C)C(=O)N[C@@H](Cc2coc3ccccc23)B(O)O)c1` (stereo partly drawn) [Example 63, ((1R)-2-(benzofuran-3-yl)-1-(3-((3-methoxyphenylethyl)amino)-2-methyl-3-oxopropionamido)ethyl)boric acid], the concentration at 0.5 h worked out at 23 µM, the concentration at 1 h was 24 µM, the concentration at 1.5 h is 15 µM and the concentration at 2 h came to 16 µM.

The values are drawn from patent US20250346613A1, “BORIC ACID PROTEASOME INHIBITOR AND USE THEREOF” (ARTIVILA BIOPHARMA, priority 2022, published 2025).
